Here are results for 1 molecule from US8440794B2, “Peptide sequences, their branched form and use thereof for antimicrobial applications” (Universita' Degli Studi di Siena, priority 2008, dated 2013).

The subject of series [1] is E. coli W03BG0025. The series is classed as cell-based, Escherichia coli. Particulars: W03BG0025, 24 h. The procedure: (§1) M33, […], M35 and M36 MICs were determined against strains of several bacterial species, including Gram-negative pathogens and also Staphylococcus aureus (Table 1). MICs in the micromolar range were observed against several Gram-negatives including Pseudomonas aeruginosa, Acinetobacter baumannii and most Enterobacteriaceae, with the exception of Proteus mirabilis, Serratia marcescens and Burkholderia cepacia. Activity of peptides was retained against MDR strains with various resistance mechanisms (such as extended-spectrum beta-lactamases and carbapenemases), including MDR P. aeruginosa strains from CF patients. Antimicrobial profile of M33, […] and potency were overall similar to those of polymyxin B, although M33, M34, M35 and M36 also appeared to have some activity against S. aureus (Table 1).

In series [2] the test system is A. baumannii MR157. Type of series: cell-based, Acinetobacter baumannii. The note with it: MR157, 24 h. Here is the method:
as §1

Series [3] relates to A. baumannii RUH 875. The series is classed as cell-based, Acinetobacter baumannii. The note with it: RUH 875, 24 h. The procedure:
as §1

Series [4] deals with E. coli TG1. Briefly: Antibacterial activity against E. coli TG1 cells (CFU count after 75 min incubation, FIG. 1A). Type of series: cell-based. Particulars: 75 minutes at 37° C., CFU counted. From the text:
FIG. 1. A, Antibacterial activity against E. coli TG1 cells. Comparison of the following tetra-branched peptides: M6 batch 1 synthesis (triangles), M6 batch 2 synthesis (squares), M6 batch 3 synthesis (white circles), which contain a mixture of Gln and pyroGlu (in unknown percentages) as first amino-acid, […] (asterisks), where the first amino-acid is 100% pyroGlu, and M33 (black circles), in which the first Gln was deleted. […] SD derived by means of three different experiments. Many different syntheses of M33 (and also of M34, M35 and M36, here not shown) gave perfectly overlapping results without any wavering outcome. B, Mass spectrometry analysis of tetra-branched peptide M6 crude mixture. Calculated molecular mass of M6 was 5195 Da. Two main peaks are present, one at 5197 Da corresponding to unmodified M6 and one at 5179 Da that corresponds to the secondary product with one pyroGlu in first position in the place of one of the four Gln. C, Mass spectrometry analysis of tetrabranched peptide M33 after 24 hours of incubation in serum. The peptide appears as a single peak at the expected molecular mass (4683 Da).
A single colony of E. coli TG1 strain was cultured in 2×TY medium to 0.2 OD^600. […] The following day colonies (CFU/ml) grown on plates were counted.

Series [5] concerns LPS. Briefly: Limulus amebocyte lysate test (E-toxate), LPS neutralization. Particulars: not shown.
For series [6], the system named is LPS from K. pneumoniae ATCC15380; TNF-α secretion by Raw 264.7 macrophages. Briefly: Inhibition of LPS-induced TNF-α secretion by Raw 264.7 macrophages, LPS from K. pneumoniae. Type of series: cell-based. Here is the method: FIG. 3. Inhibition of TNF-α release by neutralization of LPS. A, Raw 264.7 cells were incubated with LPS from P. aeruginosa 20 ng/ml and M33. Triangles indicate incubation with LPS and different concentrations of M33. Squares indicate incubation with M33 only. B, Raw 264.7 cells were incubated with LPS from K. pneumoniae 5 ng/ml and M33. Triangles indicate incubation of macrophages with LPS and different concentrations of M33. Squares indicate incubation of macrophages with M33 only. SD derived by means of three different experiments. 100% indicates the maximum amount of TNF-α produced by macrophages when incubated with LPS without M33. The other percentages indicate the amount of TNF-α produced by macrophages when incubated with LPS and M33, with respect to 100%. Basal levels of TNF-α were negligible. MIC of M33 is indicated by the arrow.
Then it was examined for inhibiting LPS-induced TNF-α, secretion by Raw 264.7 macrophages.

The subject of series [7] is P. aeruginosa ATCC 27853. As to the kind of experiment: In vivo antibacterial activity, mice infected ip with lethal amount of P. aeruginosa ATCC 27853. Further details: species or system Balb-c mice. Particulars: for Animals protected from death: P. aeruginosa ATCC 27853 1×10^7 CFU ip. Here is the method: (§2) FIG. 4. In vivo antibacterial activity of tetra-branched M33 peptide. A, Balb-c mice (20 g) were intra-peritoneally injected with a lethal amount of E. coli TG1 cells (1.5×10^9 CFU). Continuous line (Ctr) indicates mice only injected ip with bacteria and no M33. Broken line indicates mice injected ip with bacteria and a single injection of M33 peptide 10 mg/Kg 30 minutes later. B, Balb-c mice (20 g) were intra-peritoneally injected with a lethal amount of P. aeruginosa cells (ATCC 27853 1×10^7 CFU). Continuous line (Ctr) indicates mice which only received bacteria; other groups received bacteria and a single dose of M33 30 minutes later (see figure for doses of M33). C, Balb-c mice (20 g) were intra-peritoneally injected with a lethal amount of P. aeruginosa cells (multi drug resistant VR 147 clinical isolate, 1.5×10^7 CFU). Continuous line (Ctr) indicates mice which only received bacteria; broken line indicates mice which received bacteria and a single dose of M33 25 mg/Kg. D, Balb-c mice (20 g) were intra-peritoneally injected with a lethal amount of P. aeruginosa cells (ATCC 27853 1×10^7 CFU). Continuous line (Ctr) indicates mice which only received bacteria; long broken line, mice receiving bacteria and two injections of M33 (5 mg/Kg×2), 30 minutes and 12 hours after bacteria; short broken line, mice receiving bacteria and three injections of M33 (5 mg/Kg×3), 30 minutes, 12 and 24 hours after bacteria. P<0.05.
Tetra-branched M33 peptide was analysed for its antibacterial activity in mice infected with lethal amounts of bacteria. Two different bacterial species were used, Escherichia coli and Pseudomonas aeruginosa. […] Balb-c mice were infected with the LD100 of bacteria and treated 30 minutes later with the peptide by ip administration.

Series [8] concerns P. aeruginosa VR-143/97. Briefly: In vivo antibacterial activity, mice infected ip with lethal amount of MDR P. aeruginosa VR-143/97. Further details: species or system Balb-c mice. Particulars: MDR P. aeruginosa VR-143/97 1.5×10^7 CFU ip; single dose 25 mg/Kg. The procedure: as §2, with “Continuous line (Ctr) indicates mice which only received bacteria; long broken line, mice receiving bacteria and two injections of M33 (5 mg/Kg×2), 30 minutes and 12 hours after bacteria; short broken line, mice receiving bacteria and three injections of M33 (5 mg/Kg×3), 30 minutes, 12 and 24 hours after bacteria. P<0.05.” left out
Tetra-branched M33 peptide was analysed for its antibacterial activity in mice infected with lethal amounts of bacteria. […]

Series [9] is classed as in vivo. Particulars: animals treated ip with 100 mg/Kg (not shown).

SMILES strings stand for the structures. pEC50: −log10 of the molar value. In brackets after ≈: the same amount, converted by molar mass. Where a SMILES comes first, the peptide text is derived from it. Bridges are numbered along the chain shown (N, C = ends). Roman numbers before positions name the chains, in order. [ ]: non-standard residue; d: D form. βAla = NCCC(=O)O

As a reminder, the MIC is the least concentration at which growth counts as inhibited. As usually defined, the pEC50 is −log10 of the EC50, conventionally taken in molar units.

Consider `CC[C@H](C)[C@H](NC(=O)[C@H](CCCCN)NC(=O)[C@@H](N)CCCCN)C(=O)N[C@@H](CCCNC(=N)N)C(=O)N[C@H](C(=O)N[C@@H](CCCNC(=N)N)C(=O)N[C@@H](CC(C)C)C(=O)N[C@@H](CO)C(=O)N[C@@H](C)C(=O)NCCCC[C@H](NC(=O)[C@H](C)NC(=O)[C@H](CO)NC(=O)[C@H](CC(C)C)NC(=O)[C@H](CCCNC(=N)N)NC(=O)[C@@H](NC(=O)[C@H](CCCNC(=N)N)NC(=O)[C@@H](NC(=O)[C@H](CCCCN)NC(=O)[C@@H](N)CCCCN)[C@@H](C)CC)C(C)C)C(=O)NCCCC[C@H](NC(=O)[C@H](CCCCNC(=O)[C@H](C)NC(=O)[C@H](CO)NC(=O)[C@H](CC(C)C)NC(=O)[C@H](CCCNC(=N)N)NC(=O)[C@@H](NC(=O)[C@H](CCCNC(=N)N)NC(=O)[C@@H](NC(=O)[C@H](CCCCN)NC(=O)[C@@H](N)CCCCN)[C@@H](C)CC)C(C)C)NC(=O)[C@H](C)NC(=O)[C@H](CO)NC(=O)[C@H](CC(C)C)NC(=O)[C@H](CCCNC(=N)N)NC(=O)[C@@H](NC(=O)[C@H](CCCNC(=N)N)NC(=O)[C@@H](NC(=O)[C@H](CCCCN)NC(=O)[C@@H](N)CCCCN)[C@@H](C)CC)C(C)C)C(=O)NCCC(=O)O)C(C)C` [M33, KKIRVRLSA] (I: H-KKIRVRLSAKK[βAla]-OH / II: H-KKIRVRLSAK / III: H-KKIRVRLSA / IV: H-KKIRVRLSA; amide I:10-IV:C, I:11-II:C, II:10-III:C; N-terminus assumed), for which the MIC in series [1] is 0.7 µM (≈ 3.28 µg/mL); in [2], 3 µM (≈ 14 µg/mL); in series [3] it was 3 µM (≈ 14 µg/mL). Further, the “Antibacterial activity against E. coli TG1 cells (comparison of tetra-branched peptides, FIG. 1A)” value in [4] is listed as “improved peptide activity”. Besides, in [5], the “Neutralization of sample gelification due to LPS” value is “ability to neutralize sample gelification due to LPS”. The negative-log EC50 (pEC50) in [6] (Raw 264.7 macrophages, LPS from K. pneumoniae ATCC15380, 5 ng/ml, read-out: EC50, block of TNF-α secretion) is 6.59. Also, in [6] (at a concentration corresponding to MIC (1.5-3 μM), LPS from K. pneumoniae), the “Decrease of TNF-α production” value was “more than 80%”. Moreover, the “Animals protected from death” value in series [7] (single dose 6.5 mg/Kg ip 30 minutes later) is given as “did not protect them from death”; in series [7] (single dose 12.5 mg/Kg ip 30 minutes later), 25%; in series [7] (single dose 25 mg/Kg ip 30 minutes later) it was 75%. Also, the “Survival beyond seven days after infection” value in series [7] (P. aeruginosa ATCC 27853, three doses of 5 mg/Kg (30 min, 12 h and 24 h after infection)) was 100%. Also, the “Survival after multiple doses” value in series [7] (P. aeruginosa ATCC 27853, two doses of 5 mg/Kg (30 min and 12 h after infection)) is reported as “death was delayed”. The same molecule showed an Animals protected in series [8] of 100%. Also, the Apparent toxicity signs entry in series [9] is recorded as “did not produce apparent toxicity signs”.
